Measured values published in EP0105658A1, “Beta-lactam compounds” (BEECHAM GROUP PLC, priority 1982, dated 1984).
Values after ≈ are worked out from the molar mass of the structure shown. Where two headings read alike, the source gives them in different places.

How the values were obtained:
R + E coli = experiment: MIC, antibacterial activity (microtitre using nutrient broth); format: cell-based; details: * racemic, not corrected for presence of inactive enantiomer
Pseudomonas aeruginosa A = experiment: as above; format: cell-based; details: for MIC: Pseudomonas aeruginosa
S typhimurium CT10 = experiment: as above; format: cell-based; details: * racemic, not corrected for presence of inactive enantiomer
S aureus Russell = experiment: as above; format: cell-based; details: * racemic, not corrected for presence of inactive enantiomer
[1] = Stability in kidney preparations (pig); format: in vitro ADME; details: 100 mg/ml solubilised in 5% Triton X-100, * racemic compounds: figures based on stability of bio-active enantiomer
[2] = Stability in kidney preparations (human); format: in vitro ADME
E. coli JT39 = experiment: MIC against E. coli JT39; format: cell-based; set-up: unit not given here
[3] = Microtitre using Nutrient broth, * racemic, not corrected for presence of inactive enantiomer, read-out: MIC P aeruginosa A
[4] = 15% solubilised in 5% Triton X-100, 60 minutes, * racemic compounds: figures based on stability of bio-active enantiomer

| SMILES | MIC R + E coli (R + E coli) | MIC P aeruginosa A (Pseudomonas aeruginosa A; Microtitre using Nutrient broth, * racemic, not corrected for presence of inactive enantiomer) | MIC S typhimurium CT10 (S typhimurium CT10) | MIC S aureus Russell (S aureus Russell) | % left after 60 minutes Pig Kidney Acetone Powder [1] | MIC (R + E coli) | MIC (Pseudomonas aeruginosa A; [3]) | MIC (S typhimurium CT10) | % left after 60 minutes Human Kidney Sonicate [2, 4] | MIC (S aureus Russell) | % left after 60 minutes Human Kidney Sonicate ([2]; human, 60 min) | MIC against E. coli JT39 (E. coli JT39) | MIC (Pseudomonas aeruginosa A; read-out: MIC against Pseudomonas aeruginosa A) |
| --- | --- | --- | --- | --- | --- | --- | --- | --- | --- | --- | --- | --- | --- |
| C/C(=C/CN)SC1=C(C(=O)O)N2C(=O)[C@@H]([C@H](C)O)[C@H]2C1 [Example 8] |  |  |  |  | 78% | 1.6 µg/mL | 25 µg/mL | < 0.1 µg/mL | 51% | < 0.1 µg/mL |  |  |  |
| C/C(=C\CN)SC1=C(C(=O)O)N2C(=O)[C@@H]([C@H](C)O)[C@H]2C1 [Example 16, (5R, 6R)-3-[(E)-3-amino-1-methylprop-1-enylthio]-6-[(S)-1-hydroxyethyl]-7-oxo-1-azabicyclo[3.2.0]hept-2-ene-2-carboxylate] |  |  |  |  | 38% | 1.6 µg/mL | 25 µg/mL | 0.2 µg/mL | 13% | < 0.1 µg/mL |  |  |  |
| C[C@@H](O)[C@H]1C(=O)N2C(C(=O)O)=C(S/C=C/CN)C[C@H]12 [Example 12, (5R, 6S)-3-[(E)-3-aminoprop-1-enylthio]-6-[(R)-1-hydroxyethyl]-7-oxo-1-azabicyclo[3.2.0]hept-2-ene-2-carboxylic acid] |  |  |  |  |  |  | 12.5 µg/mL | 0.2 µg/mL |  | < 0.1 µg/mL | 5% |  |  |
| C/C(=C\CN)SC1=C(C(=O)O)N2C(=O)[C@H]([C@@H](C)O)[C@H]2C1 (racemic) [Example 14, (5RS, 6SR)-3-[(E)-3-amino-1-methylprop-1-enylthio]-6-[(RS)-1-hydroxyethyl]-7-oxo=1-azabicyclo[3.2.0]hept-2-ene-2-carboxylic acid] |  |  |  |  | 36% | 0.4 µg/mL | 25 µg/mL | 0.4 µg/mL | 23% | < 0.1 µg/mL |  |  |  |
| C[C@H](O)[C@@H]1C(=O)N2C(C(=O)O)=C(S/C=C\CN)C[C@H]12 [Example 1] |  |  |  |  | 39% |  |  |  | 40% |  |  | 0.4 | 6.2 µg/mL (≈ 21.8 µM) |

More lines, main results first:

| MIC R + E coli (R + E coli) | MIC P aeruginosa A (Pseudomonas aeruginosa A; Microtitre using Nutrient broth, * racemic, not corrected for presence of inactive enantiomer) | MIC S typhimurium CT10 (S typhimurium CT10) | MIC S aureus Russell (S aureus Russell) | % left after 60 minutes Pig Kidney Acetone Powder [1] | MIC (R + E coli) | MIC (Pseudomonas aeruginosa A; [3]) | MIC (S typhimurium CT10) | % left after 60 minutes Human Kidney Sonicate [2, 4] | MIC (S aureus Russell) | SMILES | % left after 60 minutes Human Kidney Sonicate ([2]; human, 60 min) | MIC against E. coli JT39 (E. coli JT39) | MIC (Pseudomonas aeruginosa A; read-out: MIC against Pseudomonas aeruginosa A) |
| --- | --- | --- | --- | --- | --- | --- | --- | --- | --- | --- | --- | --- | --- |
| 0.3 µg/mL | 25 µg/mL | 0.6 µg/mL | 0.08 µg/mL |  |  |  |  |  |  | C[C@@H](O)[C@H]1C(=O)N2C(C(=O)O)=C(S/C=C\CN)C[C@H]12 [Example 2, (5R,6S)-3-[(Z)-3-aminoprop-1-enylthio]-6-[(R)-1-hydroxyethyl]-7-oxo-1-azabicy,clo[3.2.0]hept-2-ene-2-carboxylic acid] |  |  |  |
|  |  |  |  | 40% | 0.4 µg/mL | 25 µg/mL | 0.6 µg/mL | 39% | 0.08 µg/mL | C[C@@H](O)[C@H]1C(=O)N2C(C(=O)O)=C(S/C=C\CN)C[C@H]12 (racemic) [Example 13, (5RS, 6SR)-3-[(Z)-3-Aminoprop-1-enylthio]-b-[(1RS)-1-hydroxyethyl]-7-oxo-1-azabicyclo[3.2.0]hept-2-ene-2-carboxylic acid] |  |  |  |
|  |  |  |  | 6% | < 0.1 µg/mL | 12.5 µg/mL | 0.4 µg/mL | 7% | < 0.1 µg/mL | C[C@H](O)[C@@H]1C(=O)N2C(C(=O)O)=C(S/C=C/CN)C[C@H]12 [Example 11, (5R,6R)-3-[(E)-3-aminoprop-1-enylthio]-6-[(S)-1-hydroxyethyl]-7-oxo-1-azabicyelo[3.2.0]hept-2-ene-2-carboxylic acid] |  |  |  |
|  |  |  |  |  |  | 25 µg/mL | 0.2 µg/mL |  | 0.1 µg/mL | C/C(=C/CN)SC1=C(C(=O)O)N2C(=O)[C@H]([C@@H](C)O)[C@H]2C1 [Example 10, (5R,6S)-3-[(Z)-3-amino-1-methylprop-1-enylthio]-6-[(R)-1-hydroxyethyl]-7-oxo-1-azabicyclo[3.2.0]hept-2-ene-2-carboxylic acid] | 56% |  |  |
